“Also recorded” adds a separate entry of the source.
Key:
HIF-1α = HIF-1α protein expression in U251, immunoblotting; format: cell-based; details: U251, 1-10 μM
Protocol: U251 cells were incubated with various concentrations of COH-SR4 (1˜10 μM). Whole-cell lysates were analyzed by immunoblotting with antibodies against HIF-1α. GAPDH was used as a loading control.

3T3-L1 cells = experiment: Intracellular triglyceride contents, AdipoRed Assay; format: cell-based, mouse; details: 7 days in DM + compound
Protocol: Intracellular triglyceride contents were measured using AdipoRed Assay™ and the results were shown in relative fluorescence units (RFU) in FIG. 5.
3T3-L1 preadipocytes cells were treated with differentiating media (DM) with COH-SR4 (1 μM, 3 μM, or 5 μM) or without for 7 days. […] As used in FIG. 9C, U=undifferentiated, D=differentiated with cocktail media.

p38 MAPK, ERK1/2, JNK = experiment: MAPK/ERK signaling in melanoma cells, Western blotting; format: cell-based; details: 0-10 μM; 5 μM 0-24 h
Protocol: Cell or tissue proteins were extracted with cell lysis buffer (Cell Signaling Technology) and protein concentration was determined using the DC Protein Assay kit (Bio-Rad, Hercules, Calif., USA). Equal amount of proteins (˜40 μg) were loaded onto 4-15% Criterion TGX gels (Bio-Rad, Hercules, Calif.), resolved by SDS-PAGE electrophoresis, and then transferred onto nitrocellulose membranes for immunoblotting. Membranes were blocked with 5% skimmed milk in Tris-buffered saline containing 0.05% Tween 20 before incubation overnight at 4° C. with desired primary antibodies. Immuno-reactive proteins were visualized by peroxidase-labeled secondary antibodies and ECL system (Western Lightning Chemiluminescence Reagent, Perkin-Elmer, Mass., USA). […] Band intensities were quantified using a densitometer (Quantity One, Bio-Rad, Hercules, Calif.).
To investigate whether COH-SR4 affected the MAPK/ERK signaling pathway in human melanoma, the phosphorylation levels of p38 MAPK (T^180/Y^182), ERK1/2 (T^202/Y^204), and pJNK (T^183/Y^185), in A101D, A2058, SK-Mel-5, SK-MEL-28 and B16-F0 melanoma cells were examined after COH-SR4 treatment at various doses (0-10 μM) (FIG. 76A) or at a dose of 5 μM at various time points (0-24 h) (FIG. 76B). Total proteins were isolated and analyzed by Western blotting.

hepatic genes = experiment: Liver gene expression of HFD obese and db/db mice; format: in vivo, mouse; details: RT-PCR and RNA-seq
Excerpt: Total RNA was isolated from livers of lean, vehicle or COH-SR4-treated HFD mice using standard protocols and subjected to quantitative RT-PCR using primers for key genes associated with lipid and fatty acid synthesis (Acaca, Pparg, Acly, Scd1, Srebf1, Hmgcr, Cpt1, Fasn) and gluconeogenesis (G6pc, Pck1). Livers of db/+ and db/db mice treated with vehicle or COH-SR4 were used for RNA-seq analysis. RNA isolation, purification, sequencing, library preparation and read alignments were done at the City of Hope Functional Genomics Core facility. Differential gene expression was identified from standard Partek workflow (Partek Genomics Suite v6.6, Partek, Inc) using ANOVA, with step-up FDR multiple testing correction p-value of <0.05 and 1.5× fold change. […] Databases utilized included GOTERM_BP_FAT (biological process) and Kyoto Encyclopedia of Genes and Genomes (KEGG_PATHWAY).
Total RNA was isolated from liver of control animals and HFD obese or db/db mice treated with vehicle or COH-SR4 (as described in Example 35). Relative mRNA expression (mean±SEM) of lipogenic and gluconeogenic genes were determined using real time RT-PCR and quantified using the comparative Ct method (FIG. 86A, ^#P<0.05, ^##P<0.01 vs. HFD). […] Key hepatic genes associated with lipid/fatty acid synthesis and glucose and amino acid metabolism regulated by COH-SR4 in db/db mice are shown in FIG. 86D.

H358 = experiment: Colony formation assay, H358; format: cell-based, human; details: 1.5 μM
Protocol: Cell survival was evaluated using a standard colony-forming assay. In total, 1×10^5 cells/mL were incubated with COH-SR4 (1.5 μM or 5 μM) or elesclomol (5 μM) for 24 h, and aliquots of 50 or 100 μL were added to 60 mm size petri dishes, containing 4 mL culture medium. After 7 or 10 days, adherent colonies were fixed, stained with 0.5% methylene blue for 30 min and colonies were counted using the Innotech Alpha Imager HP (91).
(§1) The effect of COH-SR4 was first examined in a NCI panel of cancer cell lines, the results of which indicated good activity of COH-SR4 towards lung cancer (FIG. 78A). […] Values are presented as mean±SD from two separate determinations with eight replicates each (n=16) (FIG. 78B). The COH-SR4 treatment exerted a significant inhibitory effect on the survival of lung cancer cells [IC50: H1417 cells-1.2±0.2 μM, H1618 cells-1.5±0.2 μM, H358 cells-2.1±0.2 μM and H520 cells-2.4±0.3 μM]. […] Following initial screening for the anticancer activity of COH-SR4, the effect of COH-SR4 on clonogenic potential was studied. Standard colony-forming assay was performed and the colonies were counted using Innotech Alpha Imager HP. […] The effect of COH-SR4 on induction of apoptosis was further investigated. […] TUNEL assay was performed using Promega fluorescence detection kit and examined using Zeiss LSM 510 META laser-scanning fluorescence microscope with filters 520 and 620 nm. […]

H1618 cells = experiment: MTT assay, H1618; format: cell-based; details: Homo sapiens, 48 h
Protocol: Cell density measurements were performed using a hemocytometer to count reproductive cells resistant to staining with trypan blue. Approximately 20,000 cells were plated into each well of 96-well flat-bottomed micro-titer plates. After 12 h or 24 h incubation at 37° C., medium containing either COH-SR4 (ranging 0-200 μM) or elesclomol (ranging 0-20 μM) were added to the cells. After 24 h, 48 h or 96 h incubation, 20 μL of 5 mg/mL MTT were introduced to each well and incubated for 2 h. The plates were centrifuged and medium was decanted. Cells were subsequently dissolved in 100 μl DMSO with gentle shaking for 2 h at room temperature, followed by measurement of OD570 (91).
The effect of COH-SR4 was first examined in a NCI panel of cancer cell lines, the results of which indicated good activity of COH-SR4 towards lung cancer (FIG. 78A). […] Values are presented as mean±SD from two separate determinations with eight replicates each (n=16) (FIG. 78B). […] Standard colony-forming assay was performed and the colonies were counted using Innotech Alpha Imager HP. […] TUNEL assay was performed using Promega fluorescence detection kit and examined using Zeiss LSM 510 META laser-scanning fluorescence microscope with filters 520 and 620 nm. […]

lung cancer cell lines = experiment: TUNEL apoptosis assay, lung cancer cell lines; format: cell-based, human; details: 1.5 μM, 24 h
Protocol: […] Apoptosis was determined by the labeling of DNA fragments with terminal deoxynucleotidyl-transferase dUTP nick-end labeling (TUNEL) assay using Promega fluorescence apoptosis detection system, and examined using Zeiss LSM 510 META laser scanning fluorescence microscope with filters 520 and 620 nm according to the protocol described previously (91). Photographs taken at identical exposure at ×400 magnification are presented.
as §1

## O=C(Nc1cc(Cl)cc(Cl)c1)Nc1cc(Cl)cc(Cl)c1 [COH-SR4, 1,3-bis(3,5-dichlorophenyl) urea]
HIF-1α
  HIF-1α protein expression: inhibited HIF-1α protein expression
3T3-L1 cells
  intracellular triglyceride contents (AdipoRed Assay): decreased intracellular triglyceride contents; also recorded: dose-dependently reduced
p38 MAPK, ERK1/2, JNK
  phosphorylation of p38 MAPK and ERK1/2: dose- and time dependent increase in the levels of phosphorylation of p38 MAPK (T^180/Y^182) and ERK1/2 (T^202/Y^204)
Hepatic genes
  hepatic pathways affected: downregulated hepatic lipogenesis and glucose metabolic pathways, while upregulating amino acid metabolism
H358
  colony formation: 47±7%
H1618 cells
  IC50: 1.5 ± 0.2 µM
Lung cancer cell lines
  apoptosis (TUNEL): induced apoptosis in all the lung cancer cell lines

From patent US9808434B2, “Compound for treating cancer and diabetes” (CITY OF HOPE, priority 2011, dated 2017)
